The assay deals with MV-4-11 cells. In words: Gene expression microarray analysis (Affymetrix PrimeView) and GSEA. Also on record: RFU PODN (11730768_x_at) / Fold change /veh PODN (11730768_x_at) / RFU LINC00158 (11744669_a_at) / Fold change /veh LINC00158 (11744669_a_at) / RFU DUSP10 (11751237_a_at) / Fold change /veh DUSP10 (11751237_a_at) / RFU ID3 (11757404_x_at) / Fold change /veh ID3 (11757404_x_at) / RFU PLEKHG5 (11737974_s_at) / Fold change /veh PLEKHG5 (11737974_s_at) / RFU LRRC4B (11730491_at) / Fold change /veh LRRC4B (11730491_at) / RFU GIMAP4 (11747438_a_at) / Fold change /veh GIMAP4 (11747438_a_at) / RFU KRT8 (11758183_x_at) / Fold change /veh KRT8 (11758183_x_at) / RFU CNN1 (11734310_a_at) / Fold change /veh CNN1 (11734310_a_at) / RFU VPS37D (11726825_at) / Fold change /veh VPS37D (11726825_at) / RFU C10orf10 (11716522_x_at) / Fold change /veh C10orf10 (11716522_x_at) / RFU KIR2DL2 /// KIR2DL4 /// KIR2DL5A /// KIR2DL5B /// KIR2DS1 /// KIR2DS2 /// KIR2DS3 /// KIR2DS4 /// KIR3DL3 /// KIR3DL3 /// KIR3DS1 (11738374_at) / Fold change /veh KIR2DL2 /// KIR2DL4 /// KIR2DL5A /// KIR2DL5B /// KIR2DS1 /// KIR2DS2 /// KIR2DS3 /// KIR2DS4 /// KIR3DL3 /// KIR3DL3 /// KIR3DS1 (11738374_at) / RFU C1QL1 (11718748_at) / Fold change /veh C1QL1 (11718748_at) / RFU TMPRSS4 (11747572_a_at) / Fold change /veh TMPRSS4 (11747572_a_at) / RFU HAMP (11756126_x_at) / Fold change /veh HAMP (11756126_x_at) / RFU RNFT2 (11725882_a_at) / Fold change /veh RNFT2 (11725882_a_at) / RFU NR4A2 (11747474_a_at) / Fold change /veh NR4A2 (11747474_a_at) / RFU ABCC12 (11746883_a_at) / Fold change /veh ABCC12 (11746883_a_at) / RFU TMEM136 (11760407_x_at) / Fold change /veh TMEM136 (11760407_x_at) / RFU CLDN22 /// WWC2 (11732394_at) / Fold change /veh CLDN22 /// WWC2 (11732394_at) / RFU HLA-DPB1 (11760878_x_at) / Fold change /veh HLA-DPB1 (11760878_x_at) / RFU SPINT1 (11716480_a_at) / Fold change /veh SPINT1 (11716480_a_at) / RFU GAP43 (11754022_s_at) / Fold change /veh GAP43 (11754022_s_at) / RFU A4GNT (11735810_at) / Fold change /veh A4GNT (11735810_at) / RFU PRB3 (11715151_x_at) / Fold change /veh PRB3 (11715151_x_at) / RFU TUBB4B (11761932_at) / Fold change /veh TUBB4B (11761932_at) / RFU CAPN14 (11732068_a_at) / Fold change /veh CAPN14 (11732068_a_at) / RFU TMCC2 (11721928_a_at) / Fold change /veh TMCC2 (11721928_a_at) / RFU IRGQ (11745062_a_at) / Fold change /veh IRGQ (11745062_a_at) / RFU FAM174B (11720279_a_at) / Fold change /veh FAM174B (11720279_a_at) / RFU TMPRSS4 (11748680_a_at) / Fold change /veh TMPRSS4 (11748680_a_at) / RFU FAM212B (11763350_a_at) / Fold change /veh FAM212B (11763350_a_at) / RFU PLEKHG5 (11743358_a_at) / Fold change /veh PLEKHG5 (11743358_a_at) / RFU ZSCAN30 (11745921_a_at) / Fold change /veh ZSCAN30 (11745921_a_at) / RFU CMKLR1 (11741424_a_at) / Fold change /veh CMKLR1 (11741424_a_at) / RFU LOC101060620 /// MAPK8IP1 (11723275_at) / Fold change /veh LOC101060620 /// MAPK8IP1 (11723275_at) / RFU SPTSSB (11747773_x_at) / Fold change /veh SPTSSB (11747773_x_at) / RFU PRSS12 (11739890_at) / Fold change /veh PRSS12 (11739890_at) / RFU BIN1 (11741810_x_at) / Fold change /veh BIN1 (11741810_x_at) / RFU WNT11 (11732464_a_at) / Fold change /veh WNT11 (11732464_a_at) / RFU C10orf10 (11716521_a_at) / Fold change /veh C10orf10 (11716521_a_at) / RFU C5orf56 (11738089_at) / Fold change /veh C5orf56 (11738089_at) / RFU CYB561 (11721691_x_at) / Fold change /veh CYB561 (11721691_x_at) / RFU ANKRD19P (11752326_a_at) / Fold change /veh ANKRD19P (11752326_a_at) / RFU OR2T12 /// OR2T33 /// OR2T8 (11738714_s_at) / Fold change /veh OR2T12 /// OR2T33 /// OR2T8 (11738714_s_at) / RFU VCAN (11748164_a_at) / Fold change /veh VCAN (11748164_a_at) / RFU JSRP1 (11732532_at) / Fold change /veh JSRP1 (11732532_at) / RFU KRTAP10-11 (11738290_x_at) / Fold change /veh KRTAP10-11 (11738290_x_at) / RFU MYO3A (11730013_a_at) / Fold change /veh MYO3A (11730013_a_at) / RFU EBF3 (11725865_a_at) / Fold change /veh EBF3 (11725865_a_at) / RFU CAMK2N1 (11719241_x_at) / Fold change /veh CAMK2N1 (11719241_x_at) / RFU C5orf56 (11738088_a_at) / Fold change /veh C5orf56 (11738088_a_at) / RFU OLFML3 (11715873_a_at) / Fold change /veh OLFML3 (11715873_a_at) / RFU LOC100653217 /// NTM (11731650_a_at) / Fold change /veh LOC100653217 /// NTM (11731650_a_at) / RFU MAPK11 (11762145_a_at) / Fold change /veh MAPK11 (11762145_a_at) / RFU FIZ1 (11724087_x_at) / Fold change /veh FIZ1 (11724087_x_at) / RFU OASL (11726364_x_at) / Fold change /veh OASL (11726364_x_at) / RFU SOX15 (11748057_x_at) / Fold change /veh SOX15 (11748057_x_at) / RFU CD79A (11719716_a_at) / Fold change /veh CD79A (11719716_a_at) / RFU HIST1H1D (11736915_at) / Fold change /veh HIST1H1D (11736915_at) / RFU CASKIN2 (11723855_a_at) / Fold change /veh CASKIN2 (11723855_a_at) / RFU LOC730098 (11760151_x_at) / Fold change /veh LOC730098 (11760151_x_at) / RFU OR4N2 (11742367_at) / Fold change /veh OR4N2 (11742367_at) / RFU PRRT2 (11749266_a_at) / Fold change /veh PRRT2 (11749266_a_at) / RFU SNX32 (11753110_a_at) / Fold change /veh SNX32 (11753110_a_at) / RFU CDHR5 (11726645_a_at) / Fold change /veh CDHR5 (11726645_a_at) / RFU RCAN1 (11760418_a_at) / Fold change /veh RCAN1 (11760418_a_at) / RFU FAM167A (11723789_a_at) / Fold change /veh FAM167A (11723789_a_at) / RFU FAM26E (11764081_at) / Fold change /veh FAM26E (11764081_at) / RFU ISYNA1 (11749810_s_at) / Fold change /veh ISYNA1 (11749810_s_at) / RFU ACY1 (11761880_at) / Fold change /veh ACY1 (11761880_at) / RFU 11764098_at / Fold change /veh 11764098_at / RFU SAMD14 (11745864_x_at) / Fold change /veh SAMD14 (11745864_x_at) / RFU NPB (11741838_a_at) / Fold change /veh NPB (11741838_a_at) / RFU TMPRSS6 (11731388_a_at) / Fold change /veh TMPRSS6 (11731388_a_at) / RFU KRTAP10-2 (11738614_at) / Fold change /veh KRTAP10-2 (11738614_at) / RFU ARHGAP8 /// PRR5-ARHGAP8 (11727945_x_at) / Fold change /veh ARHGAP8 /// PRR5-ARHGAP8 (11727945_x_at) / RFU KRTAP5-7 /// NADSYN1 (11734609_at) / Fold change /veh KRTAP5-7 /// NADSYN1 (11734609_at) / RFU RASL12 (11751679_a_at) / Fold change /veh RASL12 (11751679_a_at) / RFU CDKN2B (11736163_a_at) / Fold change /veh CDKN2B (11736163_a_at) / RFU PRF1 (11729649_at) / Fold change /veh PRF1 (11729649_at) / RFU, ZNF638 /// ZNF638-IT1 / Fold change vs veh, ZNF638 /// ZNF638-IT1 / RFU, PANK3 / Fold change vs veh, PANK3 / RFU, SH3YL1 / Fold change vs veh, SH3YL1 / RFU, ZEB2 / Fold change vs veh, ZEB2 / RFU, NRIP1 / Fold change vs veh, NRIP1 / RFU, PTTG1IP / Fold change vs veh, PTTG1IP / RFU, CAPN2 / Fold change vs veh, CAPN2 / RFU, MED14 / Fold change vs veh, MED14 / RFU, SNORA58 / Fold change vs veh, SNORA58 / RFU, C1orf63 / Fold change vs veh, C1orf63 / RFU, LRRFIP1 / Fold change vs veh, LRRFIP1 / RFU, NDUFAF7 / Fold change vs veh, NDUFAF7 / RFU, SLC12A2 / Fold change vs veh, SLC12A2 / RFU, IBTK / Fold change vs veh, IBTK / RFU, ESF1 / Fold change vs veh, ESF1 / Fold change vs veh, TMEM50B / RFU, TAOK1 / Fold change vs veh, TAOK1 / RFU, ACBD3 / Fold change vs veh, ACBD3 / RFU, TMA16 / Fold change vs veh, TMA16 / RFU, RWDD3 / Fold change vs veh, RWDD3 / RFU, BCAT1 / Fold change vs veh, BCAT1 / RFU, EDEM3 / Fold change vs veh, EDEM3 / RFU, TMEM33 / Fold change vs veh, TMEM33 / RFU, WDR75 / Fold change vs veh, WDR75 / RFU, AHCTF1 / Fold change vs veh, AHCTF1 / RFU, TFRC / Fold change vs veh, TFRC / RFU, ZDHHC17 / Fold change vs veh, ZDHHC17 / RFU, NOM1 / Fold change vs veh, NOM1 / RFU, ARL8B / Fold change vs veh, ARL8B / RFU, ZBTB11 / Fold change vs veh, ZBTB11 / RFU, TAMM41 / Fold change vs veh, TAMM41 / RFU, KIAA1704 /// LOC100996395 / Fold change vs veh, KIAA1704 /// LOC100996395 / RFU, ING1 / Fold change vs veh, ING1 / RFU, TRMT61B / Fold change vs veh, TRMT61B / RFU, FUBP3 / Fold change vs veh, FUBP3 / RFU, TP53 / Fold change vs veh, TP53 / RFU, TNKS2 / Fold change vs veh, TNKS2 / RFU, ZFP14 / Fold change vs veh, ZFP14 / RFU, ACTR2 / Fold change vs veh, ACTR2 / RFU, PPP3R1 / Fold change vs veh, PPP3R1 / RFU, PIK3R1 / Fold change vs veh, PIK3R1 / RFU, HNRNPA1 / Fold change vs veh, HNRNPA1 / RFU, RNF170 / Fold change vs veh, RNF170 / RFU, ZNF28 / Fold change vs veh, ZNF28 / RFU, RNGTT / Fold change vs veh, RNGTT / RFU, OGT / Fold change vs veh, OGT / RFU, BRD1 / Fold change vs veh, BRD1 / RFU, MARS / Fold change vs veh, MARS / RFU, ZNF655 / Fold change vs veh, ZNF655 / RFU, FAHD1 / Fold change vs veh, FAHD1 / RFU, BDP1 / Fold change vs veh, BDP1 / RFU, LRRCC1 / Fold change vs veh, LRRCC1 / RFU, ARID1A / Fold change vs veh, ARID1A / RFU, ZNF146 / Fold change vs veh, ZNF146 / RFU, ZNF330 / Fold change vs veh, ZNF330 / RFU, GPN3 / Fold change vs veh, GPN3 / RFU, C9orf123 / Fold change vs veh, C9orf123 / RFU, N4BP2L2 / Fold change vs veh, N4BP2L2 / RFU, ARFIP1 / Fold change vs veh, ARFIP1 / RFU, FAM179B / Fold change vs veh, FAM179B / RFU, BCL10 / Fold change vs veh, BCL10 / RFU, UHRF1BP1L / Fold change vs veh, UHRF1BP1L / RFU, BET1 / Fold change vs veh, BET1 / RFU, CNOT2 / Fold change vs veh, CNOT2 / RFU, ZNF268 / Fold change vs veh, ZNF268 / Fold change vs veh, ZNF507 / RFU, DGCR2 / Fold change vs veh, DGCR2 / RFU, WDSUB1 / Fold change vs veh, WDSUB1 / Fold change vs veh, HSP90B1 /// MIR3652 / RFU, ADSS / Fold change vs veh, ADSS / RFU, GK / Fold change vs veh, GK / RFU, ZNF148 / Fold change vs veh, ZNF148 / RFU, TAF9 / Fold change vs veh, TAF9 / RFU, SLC1A5 / Fold change vs veh, SLC1A5 / RFU, SLMO2 / Fold change vs veh, SLMO2 / RFU, ABCC4 / Fold change vs veh, ABCC4 / RFU, LOC101060439 /// RAP1B / Fold change vs veh, LOC101060439 /// RAP1B / RFU, RFX7 / Fold change vs veh, RFX7 / RFU, GTPBP10 / Fold change vs veh, GTPBP10 / RFU, CNEP1R1 / Fold change vs veh, CNEP1R1 / RFU, BIVM-ERCC5 /// ERCC5 / Fold change vs veh, BIVM-ERCC5 /// ERCC5 / RFU, ILF3 / Fold change vs veh, ILF3 / RFU 11762660_at / Fold change /veh 11762660_at / RFU VCAN (11757783_s_at) / Fold change /veh VCAN (11757783_s_at) / RFU DDX43 (11728927_at) / Fold change /veh DDX43 (11728927_at) / RFU KRT8 (11758188_x_at) / Fold change /veh KRT8 (11758188_x_at) / RFU NKD1 (11759106_at) / Fold change /veh NKD1 (11759106_at) / RFU SRD5A1 (11742802_a_at) / Fold change /veh SRD5A1 (11742802_a_at) / RFU TPSAB1 /// TPSB2 (11721975_s_at) / Fold change /veh TPSAB1 /// TPSB2 (11721975_s_at) / RFU GSTM3 (11746129_a_at) / Fold change /veh GSTM3 (11746129_a_at) / RFU IL23R (11737362_x_at) / Fold change /veh IL23R (11737362_x_at) / RFU TMEM51 (11727254_a_at) / Fold change /veh TMEM51 (11727254_a_at) / RFU PIWIL2 (11732686_x_at) / Fold change /veh PIWIL2 (11732686_x_at) / RFU ORM1 (11744905_x_at) / Fold change /veh ORM1 (11744905_x_at) / RFU CCDC152 (11743942_at) / Fold change /veh CCDC152 (11743942_at) / RFU ECM1 (11717891_a_at) / Fold change /veh ECM1 (11717891_a_at) / RFU IL23R (11748794_a_at) / Fold change /veh IL23R (11748794_a_at) / RFU TNFAIP8L3 (11732012_x_at) / Fold change /veh TNFAIP8L3 (11732012_x_at) / RFU MBOAT4 (11741988_at) / Fold change /veh MBOAT4 (11741988_at) / RFU 11764193_at / Fold change /veh 11764193_at / RFU TMEM53 (11763286_at) / Fold change /veh TMEM53 (11763286_at) / RFU MAGEB2 (11727129_at) / Fold change /veh MAGEB2 (11727129_at) / RFU TMEM200A (11744735_a_at) / Fold change /veh TMEM200A (11744735_a_at) / RFU CCDC152 (11751479_a_at) / Fold change /veh CCDC152 (11751479_a_at) / RFU FAM211A (11726209_a_at) / Fold change /veh FAM211A (11726209_a_at) / RFU RGS16 (11746705_a_at) / Fold change /veh RGS16 (11746705_a_at) / RFU VCAN (11755009_s_at) / Fold change /veh VCAN (11755009_s_at) / RFU RHOB (11743442_s_at) / Fold change /veh RHOB (11743442_s_at) / RFU RGS16 (11720943_a_at) / Fold change /veh RGS16 (11720943_a_at) / RFU RGS16 (11720944_at) / Fold change /veh RGS16 (11720944_at) / RFU, VPS4B / Fold change vs veh, VPS4B / RFU, CREB1 / Fold change vs veh, CREB1 / RFU, DNAJC13 / Fold change vs veh, DNAJC13 / RFU, GNAQ / Fold change vs veh, GNAQ / RFU, CDK5R1 / Fold change vs veh, CDK5R1 / RFU, ZRANB3 / Fold change vs veh, ZRANB3 / RFU, CUL4A / Fold change vs veh, CUL4A / RFU, CCNY / Fold change vs veh, CCNY / RFU, UFL1 / Fold change vs veh, UFL1 / RFU, COG3 / Fold change vs veh, COG3 / RFU, DIAPH2 / Fold change vs veh, DIAPH2 / RFU, SKA2 / Fold change vs veh, SKA2 / RFU, AFF3 / Fold change vs veh, AFF3 / RFU, LMF1 / Fold change vs veh, LMF1 / RFU, IPO11 / Fold change vs veh, IPO11 / RFU, DFFB / Fold change vs veh, DFFB / RFU, FOXP1 / Fold change vs veh, FOXP1 / RFU, CARD8 / Fold change vs veh, CARD8 / RFU, STRN3 / Fold change vs veh, STRN3 / RFU, ADK / Fold change vs veh, ADK / RFU, RASSF2 / Fold change vs veh, RASSF2 / RFU, WIPF1 / Fold change vs veh, WIPF1 / RFU, LARP1B / Fold change vs veh, LARP1B / RFU, RASA1 / Fold change vs veh, RASA1 / RFU, RB1 / Fold change vs veh, RB1 / RFU, PPFIA1 / Fold change vs veh, PPFIA1 / RFU, MAT2A / Fold change vs veh, MAT2A / RFU, CCT5 / Fold change vs veh, CCT5 / RFU, WDR92 / Fold change vs veh, WDR92 / RFU, CUX1 / Fold change vs veh, CUX1 / RFU, TTC7A / Fold change vs veh, TTC7A / RFU, TMEM135 / Fold change vs veh, TMEM135 / RFU, DEPTOR / Fold change vs veh, DEPTOR / RFU, CPM / Fold change vs veh, CPM / RFU, DNAJB6 / Fold change vs veh, DNAJB6 / RFU, CACNA2D3 / Fold change vs veh, CACNA2D3 / RFU, DTX4 / Fold change vs veh, DTX4 / RFU, TFCP2 / Fold change vs veh, TFCP2 / RFU, GMCL1 /// GMCL1P1 / Fold change vs veh, GMCL1 /// GMCL1P1 / RFU, AEBP2 / Fold change vs veh, AEBP2 / RFU, SNHG1 /// SNORD22 /// SNORD25 /// SNORD26 /// SNORD27 /// SNORD28 /// SNORD29 /// SNORD31 / Fold change vs veh, SNHG1 /// SNORD22 /// SNORD25 /// SNORD26 /// SNORD27 /// SNORD28 /// SNORD29 /// SNORD31 / Fold change (Aza/veh), C12orf56 (ProbeSet 11735607_a_at) / Fold change (ACY-1035/veh), C12orf56 (ProbeSet 11735607_a_at) / Fold change (Aza/veh), FGFR1OP (ProbeSet 11751329_s_at) / Fold change (ACY-1035/veh), FGFR1OP (ProbeSet 11751329_s_at) / Fold change (Aza/veh), VPS36 (ProbeSet 11739960_a_at) / Fold change (ACY-1035/veh), VPS36 (ProbeSet 11739960_a_at) / RFU SYPL1 (11715823_x_at) / Fold change /veh SYPL1 (11715823_x_at) / RFU IGFBP7 (11715501_s_at) / Fold change /veh IGFBP7 (11715501_s_at) / RFU REEP3 (11722064_at) / Fold change /veh REEP3 (11722064_at) / RFU IGLL1 (11728026_x_at) / Fold change /veh IGLL1 (11728026_x_at): dose or concentration left out as unconfirmed. Particulars: ProbeSet 11726703_a_at; LIST B. The class given is cell-based, human.

Structures are written as SMILES.

With `Nc1ncn([C@@H]2O[C@H](CO)[C@@H](O)[C@H]2O)c(=O)n1` [azacitidine], the “Fold change vs veh, BCL10” value came to 0.88.

The values are drawn from paper PMC5218480 (PLoS ONE, 2017).
